Assay results published in ChEMBL document CHEMBL1156510, “Epidermal growth factor receptor and notch pathways participate in the tumor suppressor function of gamma-secretase” (2007).
Calls of active or inactive are those of the source. The rule behind the calls is not given here.

Columns and labels:
Mus musculus [1] = test: Reduction of amyloid beta in Tg2576 mouse plasma at 2.5 mg/kg/day; type: functional; set-up: scale not given: the % may be the effect or the level left
Mus musculus [2] = test: Reduction of amyloid beta in Tg2576 mouse brain at 2.5 mg/kg/day; type: functional; set-up: scale not given: the % may be the effect or the level left
Mus musculus [3] = test: Induction of hyperproliferative skin lesions assessed as epidermal hyperplasia in Nct+/- C57BL/6;129Svi mouse at 2.5 mg/kg/day; type: functional, organism-based
Fibroblast [4] = test: Inhibition of Nct-/- C57BL/6;129Svi mouse fibroblast cell proliferation; type: functional, cell-based
Fibroblast [5] = test: Inhibition of EGF induced Nct-/- C57BL/6;129Svi mouse fibroblast cell proliferation at 5 uM; type: functional, cell-based
Fibroblast [6] = test: Inhibition of EGF induced Nct+/+ C57BL/6129Svi mouse fibroblast cell proliferation at 5 uM; type: functional, cell-based; conditions: C57BL/6

Structure (SMILES) | Activity (Mus musculus [1]) [%] | Activity (Mus musculus [2]) [%] | Activity (Mus musculus [3]) | Activity (Fibroblast [4]) | Activity (Fibroblast [5]) | Activity (Fibroblast [6])
C[C@H](NC(=O)[C@@H](O)c1cc(F)cc(F)c1)C(=O)N[C@@H]1C(=O)N(C)c2ccccc2-c2ccccc21 | >90 | >70 | Active | – | – | –
COc1cc2ncnc(Nc3cccc(Cl)c3)c2cc1OC | – | – | – | Active | Active | inactive
